Source: patent publication US9023852B2, “1, 2, 4-thiadiazol-5-ylpiperazine derivatives useful in the treatment of neurodegenerative diseases” (Remynd NV, priority 2011, dated 2015)

Tested on: M17—3TAU(P301L) cells
Assay: Neuroblastoma tauopathy model: inhibition of TAU-induced cytotoxicity (LDH)
Type: cell-based
Conditions: Homo sapiens, 168 h; inhibition of TAU-induced toxicity (LDH), 7 days differentiation with retinoic acid
Description: A TAU expression plasmid was constructed by sub-cloning the cDNA encoding for human TAU-P301L protein, wherein proline at position 301 is substituted by a leucine residue, into mammalian expression vector pcDNA3.1 resulting in the plasmid pcDNA3.1-TAUP301L. Plasmids pcDNA3.1 and pcDNA3.1-TAU P301L were transfected into human neuroblastoma cells (BE-M17; ATCC No. CRL-2267™) using lipofectamine reagent and subsequently, independent clonal cell lines with the plasmids stably integrated into the genome were selected by antibiotic resistance selection (Geneticin (G418)), resulting in cell lines M17.pcDNA3 and M17—3TAUP301L. Expression of the TAUP301L gene in the M17—3TAUP301L cells was confirmed by Western blot analysis.
Differentiation of the cells with RA leads to phosphorylation and subsequent aggregation of TAU, inducing a tauopathy in these cells. Cytotoxicity of cells was measured by quantification of lactate dehydrogenase (LDH) levels. In dead cells LDH is leaked out of the cells into the medium due to a loss of plasma-membrane integrity.
Briefly, 3 days preceding the experiment pre-cultures of M17.pcDNA3 and M17—3TAU(P301L) cells were prepared, starting from a stock culture, at a density of 50.000-100.000 cells/cm2 in detection medium (Optimem Reduced Serum without phenol red (Gibco, Cat. 31985-047) supplemented with 1% fetal calf serum (FCS), 1 mM sodium pyruvate, 1× non-essential amino acids (NEAA), 500 μg/ml G418 and 0.5× antibiotic/antimycotic (ABAM)). At the day of the experiment these precultures were diluted to ˜0, 1.106 cells/ml in detection medium without FCS and 60 μL of this suspension is dispensed per well into a 96-well microtiter plate. After 3 hours of incubation at 37° C./5% CO2 an equal volume of detection medium containing 2.5 μM RA was added and subsequently incubated for 7 days at 37° C./5% CO2. After 7 days, LDH activity was determined using the Promega Cytotox 96 Non-Radioactive cytotoxicity assay (Cat. G1780), according the manufacturer's instructions. Cytotoxicity is measured as the ratio of LDH increase in the supernatant divided by the LDH increase in the total cell suspension (sum of the LDH measured in cells and supernatant).
The M17—3TAU(P301L) cell line makes it possible to assess the ability of novel compounds to inhibit TAU-induced cytotoxicity. […] Compounds were tested for their ability to hamper TAU-induced toxicity at different concentrations, ranging from low non-effective concentrations to high potent concentrations. Afterwards, the dose-dependent inhibition curve was used to calculate their EC50 (Table 1).

| Compound | EC50 [nM] |
| --- | --- |
| FC(F)(F)c1cccc(CCN2CCN(c3nc(-c4cccc(Cl)c4)ns3)CC2)c1 [Example 142, 1-[3-(3-Chloro-phenyl)-[1,2,4]thiadiazol-5-yl]-4-[2-(3-trifluoromethyl-phenyl)-ethyl]-piperazine] | 3.7 |
| Cc1cc(-c2nsc(N3CCN(CCc4ccccc4)CC3)n2)ccn1 [Example 171, 3-(2-methylpyridin-4-yl)-5-(4-phenethylpiperazin-1-yl)-1,2,4-thiadiazole] | 2.4 |
| COc1cccc(CCN2CCN(c3nc(-c4cccc(Cl)c4)ns3)CC2)c1 [Example 48, 1-[3-(3-Chloro-phenyl)-[1,2,4]thiadiazol-5-yl]-4-[2-(3-methoxy-phenyl)-ethyl]-piperazine] | 0.6 |
| Clc1cncc(-c2nsc(N3CCN(CCN4CCCCC4)CC3)n2)c1 [Example 163, 3-(5-chloropyridin-3-yl)-5-(4-(2-(piperidin-1-yl)ethyl)piperazin-1-yl)-1,2,4-thiadiazole] | 13 |
| COc1ccccc1CCN1CCN(c2nc(-c3ccc(Cl)cc3)ns2)CC1 [Example 27, 1-[3-(4-Chloro-phenyl)-[1,2,4]thiadiazol-5-yl]-4-[2-(2-methoxy-phenyl)-ethyl]-piperazine] | 16.7 |
| COc1ccc(CCN2CCN(c3nc(-c4cccc(F)c4)ns3)CC2)cc1 [Example 84, 1-[3-(3-Fluoro-phenyl)-[1,2,4]thiadiazol-5-yl]-4-[2-(4-methoxy-phenyl)-ethyl]-piperazine] | 0.7 |
| COc1ccc(CCN2CCN(c3nc(-c4ccc(F)c(F)c4)ns3)CC2)cc1 [Example 102, 1-[3-(3,4-Difluoro-phenyl)-[1,2,4]thiadiazol-5-yl]-4-[2-(4-methoxy-phenyl)-ethyl]-piperazine] | 0.9 |
| COc1ccc(CC(C)N2CCN(c3nc(-c4ccc(Cl)cc4)ns3)CC2)cc1 (centres unmarked) [Example 73, 1-[3-(4-Chloro-phenyl)-[1,2,4]thiadiazol-5-yl]-4-[2-(4-methoxy-phenyl)-1-methyl-ethyl]-piperazine] | 0.9 |
| COc1cc(CCN2CCN(c3nc(-c4cnc(C)nc4)ns3)CC2)ccn1 [Example 183, 5-(4-(2-(2-methoxypyridin-4-yl)ethyl)piperazin-1-yl)-3-(2-methylpyrimidin-5-yl)-1,2,4-thiadiazole] | 152 |
| COc1ccc(CCN2CCN(c3nc(-c4ccc(Cl)cc4)ns3)CC2)cc1 [Example 17, 1-[3-(4-Chloro-phenyl)-[1,2,4]thiadiazol-5-yl]-4-[2-(4-methoxy-phenyl)-ethyl]-piperazine] | 0.8 |
| OC(CN1CCN(c2nc(-c3ccc(Cl)cc3)ns2)CC1)c1cccc(F)c1 (centres unmarked) [Example 63, 2-{4-[3-(4-Chloro-phenyl)-[1,2,4]thiadiazol-5-yl]-piperazin-1-yl}-1-(3-fluoro-phenyl)-ethanol] | 7.4 |
| N#Cc1cccc(-c2nsc(N3CCN(CCc4ccc(Cl)cc4)CC3)n2)c1 [Example 113, 3-(5-{4-[2-(4-Chloro-phenyl)-ethyl]piperazin-1-yl}-[1,2,4]thiadiazol-3-yl)-benzonitrile] | 17.1 |
| Fc1ccc(-c2nsc(N3CCN(CCc4ccc(C(F)(F)F)cc4)CC3)n2)cc1F [Example 146, 1-[3-(3,4-Difluoro-phenyl)-[1,2,4]thiadiazol-5-yl]-4-[2-(4-trifluoromethyl-phenyl)-ethyl]-piperazine] | 60.1 |
| COc1ccc(C(F)CN2CCN(c3nc(-c4ccc(Cl)cc4)ns3)CC2)cc1 (centres unmarked) [Example 64, 1-[3-(4-Chloro-phenyl)-[1,2,4]thiadiazol-5-yl]-4-[2-fluoro-2-(4-methoxy-phenyl)-ethyl]-piperazine] | 9.8 |
| Fc1ccc(CCN2CCN(c3nc(-c4ccc(F)c(F)c4)ns3)CC2)cc1 [Example 103, 1-[3-(3,4-Difluoro-phenyl)-[1,2,4]thiadiazol-5-yl]-4-[2-(4-fluoro-phenyl)-ethyl]-piperazine] | 3.4 |
| N#Cc1ccc(-c2nsc(N3CCN(CCc4cccc(C(F)(F)F)c4)CC3)n2)cc1 [Example 143, 4-(5-{4-[2-(3-Trifluoromethyl-phenyl)-ethyl]-piperazin-1-yl}-[1,2,4]thiadiazol-3-yl)-benzonitrile] | 143 |
| COc1ccc(CCN2CCN(c3nc(-c4ccc(Cl)cc4F)ns3)CC2)cc1 [Example 56, 1-[3-(4-Chloro-2-fluoro-phenyl)-[1,2,4]thiadiazol-5-yl]-4-[2-(4-methoxy-phenyl)-ethyl]-piperazine] | 5.5 |
| C=C(CN1CCN(c2nc(-c3ccc(Cl)cc3)ns2)CC1)c1ccc(OC)cc1 [Example 59, 1-[3-(4-Chloro-phenyl)-[1,2,4]thiadiazol-5-yl]-4-[2-(4-methoxy-phenyl)-allyl]-piperazine] | 75 |
| N#Cc1ccc(-c2nsc(N3CCN(CCc4ccc(Cl)cc4)CC3)n2)cc1 [Example 112, 4-(5-{4-[2-(4-Chloro-phenyl)-ethyl]piperazin-1-yl}-[1,2,4]thiadiazol-3-yl)-benzonitrile] | 56.7 |
| Cc1ccc(-c2nsc(N3CCN(Cc4ccc(Cl)cc4Cl)CC3)n2)cc1 [Example 3, 1-(2,4-Dichloro-benzyl)-4-(3-p-tolyl-[1,2,4]thiadiazol-5-yl)-piperazine] | 987 |
| Fc1cccc(-c2nsc(N3CCN(CCc4cccc(C(F)(F)F)c4)CC3)n2)c1 [Example 141, 1-[3-(3-Fluoro-phenyl)-[1,2,4]thiadiazol-5-yl]-4-[2-(3-trifluoromethyl-phenyl)-ethyl]-piperazine] | 198 |
| COc1ccc(CCN2CCN(c3nc(-c4cnc(C)nc4)ns3)CC2)cc1 [Example 179, 5-(4-(4-methoxyphenethyl)piperazin-1-yl)-3-(2-methylpyrimidin-5-yl)-1,2,4-thiadiazole] | 3.4 |
| O=C(CN1CCN(c2nc(-c3ccc(Cl)cc3)ns2)CC1)c1cccc(F)c1 [Example 62, 2-{4-[3-(4-Chloro-phenyl)-[1,2,4]thiadiazol-5-yl]-piperazin-1-yl}-1-(3-fluoro-phenyl)-ethanone] | 68.7 |
| COc1cccc(CCN2CCN(c3nc(-c4ccc(F)cc4)ns3)CC2)c1 [Example 34, 1-[3-(4-Fluoro-phenyl)-[1,2,4]thiadiazol-5-yl]-4-[2-(3-methoxy-phenyl)-ethyl]-piperazine] | 1.4 |
| COc1ccc(CCN2CCN(c3nc(-c4cccc(C#N)c4)ns3)CC2)cc1 [Example 81, 3-(5-{4-[2-(4-Methoxy-phenyl)-ethyl]-piperazin-1-yl}-[1,2,4]thiadiazol-3-yl)-benzonitrile] | 0.6 |
| Fc1cccc(-c2nsc(N3CCN(CCc4ccc(F)c(F)c4)CC3)n2)c1 [Example 156, 5-(4-(3,4-difluorophenethyl)piperazin-1-yl)-3-(3-fluorophenyl)-1,2,4-thiadiazole] | 11.9 |
| Cc1ccccc1CN1CCN(c2nc(-c3ccc(Cl)cn3)ns2)CC1 [Example 129, 1-[3-(5-Chloro-pyridin-2-yl)-[1,2,4]thiadiazol-5-yl]-4-(2-methyl-benzyl)-piperazine] | 92.3 |
| COc1cccc(CCN2CCN(c3nc(-c4ccc(C)cc4)ns3)CC2)c1 [Example 16, 1-[2-(3-Methoxy-phenyl)-ethyl]-4-(3-p-tolyl-[1,2,4]thiadiazol-5-yl)-piperazine] | 65.3 |
| COc1cccc(CCN2CCN(c3nc(-c4ccc(F)cc4OC)ns3)CC2)c1 [Example 66, 1-[3-(4-Fluoro-2-methoxy-phenyl)-[1,2,4]thiadiazol-5-yl]-4-[2-(3-methoxy-phenyl)-ethyl]-piperazine] | 1.5 |
